Measured values: US20260199529A1, “EPITHELIAL CELL ADHESION MOLECULE-SPECIFIC PEPTIDE CONJUGATES AND METHODS” (REGENTS OF THE UNIVERSITY OF MICHIGAN, priority 2022, published 2026)
“Also recorded” adds a separate entry of the source. Where a SMILES comes first, the peptide text is derived from it. Where no end group is shown, it is not given here. The star is where a group is joined. X1 = CC1(C)C(=CC=C2CCCC(C=CC3=[N+](CCCCS(=O)(=O)[O-])c4ccc(S(=O)(=O)O)cc4C3(C)C)=C2Oc2ccc(S(=O)(=O)O)cc2)N(CCCCCC(=O)NCCN2C(=O)CC(*)C2=O)c2ccc(S(=O)(=O)O)cc21

How the values were obtained:
[1] = target: T1, EpCAM (Homo sapiens, UniProt P16422); assay: siRNA knockdown validation of binding (confocal microscopy); assay type: cell-based; conditions: for fluorescence intensity / cell surface staining, siEpCAM versus siCL: Hep3B (EpCAM+) cells, siRNA against EpCAM vs control siRNA
T1 construct: endogenous in cells; host or cells: Hep3B human HCC cells (A1 also names human SG231 ICC cells)
T1 sequence (P16422 24-314): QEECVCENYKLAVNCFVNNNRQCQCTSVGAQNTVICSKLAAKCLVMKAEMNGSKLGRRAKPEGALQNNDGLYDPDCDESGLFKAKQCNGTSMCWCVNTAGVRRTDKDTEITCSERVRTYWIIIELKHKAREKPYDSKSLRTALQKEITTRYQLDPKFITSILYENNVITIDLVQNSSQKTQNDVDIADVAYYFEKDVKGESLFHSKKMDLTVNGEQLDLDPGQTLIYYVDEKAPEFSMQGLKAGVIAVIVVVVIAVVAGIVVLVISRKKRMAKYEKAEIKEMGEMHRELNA
Protocol: (§1) An ANOVA was fit with terms for 3 treatments, 2 siRNA effects, and their interactions using slides in triplicate. […] Fluorescence intensities were measured from 10 cells chosen randomly from 3 slides. * P<0.01 by pairwise comparisons.
Specific binding of HPD*-IRDye800 to EpCAM was validated using siRNA knockdown in human SG231 (EpCAM+) ICC cells. Preliminary data were obtained using Hep3B (EpCAM+) human HCC cells. The cells were treated with siRNA against EpCAM (siEpCAM) and control siRNA (siCL).

[2] = target: T1, EpCAM; assay: co-localization assay with anti-EpCAM-AF488 on Hep3B cells; assay type: cell-based
Protocol: (§2) A Pearson's correlation coefficient of p=0.81 was measured from the merged image. […] B) An apparent dissociation constant of kd=43 nM, R^2=0.99 was measured for HPD*-IRDye800 binding to Hep3B cells. The equilibrium dissociation constant kd=1/ka was calculated by performing using a least square fit of the data to the non-linear equation I=(I0+ImaxKa[X])/(I0+Ka[X]). I0 and Imax are the initial and maximum fluorescence intensities, corresponding to no peptide and at saturation, respectively, and [X] represents the concentration of the bound peptide. Results are the mean values from 3 independent experiments. C) Peptide stability in mouse serum was measured by intravenously injecting HPD*-IRDye800 (200 μM in 200 μL of PBS) in mice (n=5). Serum was collected at various time points from 0-24 hours post-injection. The fluorescence intensity I(t) was measured and fit to a first-order kinetics model I(t)=Io+A×exp(−Bt).
Finally, specific binding of HPD*-IRDye800 to EpCAM was validated using a co-localization assay. Binding by HPD*-IRDye800 and anti-EpCAM-AF488 to the surface (arrows) of Hep3B cells co-localized with a correlation of p=0.81 measured on the merged image, FIG. 3A.

[3] = serum stability (half-life) after intravenous injection in mice; assay type: in vivo; conditions: 40 nmol, mouse serum, 0-24 hours, first-order kinetics fit, read-out: serum half-life T1/2 (converted)
Protocol: as §2
The serum half-life of HPD*-IRDye800 was measured to assess peptide stability. HPD*-IRDye800 was injected intravenously in live mice. Fluorescence intensities were measured time points ranging from 0-24 hours, and fit to a first order kinetic model.

[4] = test system: human HCC tumor; assay: ex vivo immunofluorescence of resected xenograft liver sections; design: species or system mouse; conditions: immunofluorescence on resected liver sections
Description: After imaging was completed as described in Example 6, the mice were euthanized, and the livers were resected, formalin-fixed, and sectioned to confirm EpCAM expression in human […] tumors. […] The merged image confirms co-localization of peptide and antibody binding to HCC tumor but not to normal mouse liver, FIG. 8D.

[5] = peptide toxicity, animal necropsy histology (H&E); assay type: in vivo, mouse; conditions: brain, heart, liver, spleen, lung, kidney, stomach, colon
Protocol: Mice were sacrificed at […].
Tumor bearing mice were euthanized on day 0 and 15 post-injection of the HPD*-IRDye800 and control peptides. Whole blood (~600 μL) was collected by cardiac puncture and submitted for standard hematology and chemistry. Major organs, including liver, kidney, heart, lung, spleen, stomach, intestine, and brain were resected, processed, and evaluated as routine histology (H&E). A total of 8 mice in each cohort were evaluated.

[6] = test system: human HCC specimens; assay: immunofluorescence binding to human HCC specimens ex vivo
Protocol: Binding of HPD*-IRDye800 to human HCC specimens and metastatic lymph nodes ex vivo was examined using immunofluorescence.
The merged images show co-localization of peptide and antibody binding to HCC and normal liver, and a Pearson's correlation coefficient of p=0.68 and 0.66, respectively, were calculated. […] Results were compared with histology evaluated by an expert liver pathologist.

[7] = in vivo whole-body fluorescence imaging, PDX tumor model of HCC; design: species or system mouse; conditions: mouse, in vivo, iv, 300 uM in 200 ul PBS, whole-body imaging up to 24 hours, read-out: time of peak T/B ratio post-injection
Protocol: (§3) A) Images were collected with excitation at λex=800 nm before (pre) and at 0, 0.5, 1.0, 1.25, 1.5, 2, 4 and 24 hours post-injection of HPD*-IRDye800. […] PFH*-IRDye800 was administered for use as control. […] B) The quantified T/B ratio confirms a peak uptake of HPD*-IRDye800 by tumor at 1.5 hours. The adjacent non-tumor tissue region with equal area to the tumor region was used for background.
(§4) Tumor-bearing mice [a patient-derived xenograft (PDX) tumor model of HCC] were injected intravenously with the HPD*-IRDye800 and control peptides (300 μM in 200 μl PBS). Unlabeled peptide and ICG were administrated as above. The spatial extent and margins of tumors were identified using a NIR whole-body fluorescence imaging system (Pearl®, LI-COR Biosciences) up to 24 h post injection. The images were acquired using λex=800 nm with 85 μm resolution and 16.8×12 cm^2 field of view (FOV). Image Studio software (Li-Cor Biosciences) was used for analysis. Regions of interest (ROI) with area equal to that of the tumor and adjacent in location was measured for background.

[8] = test system: patient-derived xenograft (PDX) tumor model of HCC; assay: as above; design: species or system mouse; conditions: over 24 hours
Protocol: as §3, §4

[9] = test system: HCC micrometastases in lung; assay: detection of lung micrometastases (immunofluorescence); design: species or system mouse; conditions: lung tissue sections of PDX tumor model mice
Description: D) Anti-cytokeratin stain confirms presence of human tumor (arrow). […] F) Corresponding histology (H&E) verifies HCC tumor in lung.
Immunofluorescence images were also collected from lung tissue sections of the PDX tumor model of HCC mice.

[10] = in vivo; conditions: mouse, iv, 150 µM, 200 uL
Protocol: (§5) A total of n=8 animals were studied per group. […] P-values were calculated using a one-way ANOVA model. Background was defined as the adjacent non-tumor region with equal area of the tumor region.

[11] = test system: human HCC Hep3B xenograft tumors; assay: in vivo NIR fluorescence imaging of orthotopic Hep3B xenograft tumors
Protocol: as §5

[12] = target: T1, EpCAM; assay: competition assay with unlabeled peptide; assay type: cell-based; conditions: unlabeled competitor added at 0-120 mM
Protocol: as §1
Specific binding of HPD*-IRDye800 to EpCAM was also validated using a competition assay. Unlabeled HPD* was added to compete for binding with IRDye800-labeled HPD* with concentrations ranging from […].

[13] = target: T2, Epithelial cell adhesion molecule (EpCAM) (human, UniProt P16422 24-314); assay: flow cytometry, HPD*-IRDye800 0-200 nM on Hep3B cells; apparent dissociation constant
T2 construct: whole, on cells; also called human EpCAM
T2 sequence (looked up): T1 sequence (P16422 24-314)

CSCC[C@H](NC(=O)[C@H](CC(=O)O)NC(=O)[C@@H]1CCCN1C(=O)[C@@H](N)Cc1c[nH]cn1)C(=O)N[C@@H](Cc1ccccc1)C(=O)N[C@H](C(=O)N[C@@H](CCCNC(=N)N)C(=O)N[C@H](C(=O)N[C@@H](Cc1c[nH]cn1)C(=O)N[C@@H](CO)C(=O)N[C@@H](Cc1c[nH]cn1)C(=O)N[C@@H](CC(N)=O)C(=O)NCC(=O)NCC(=O)NCC(=O)N[C@@H](CO)C(=O)N[C@@H](CSC1CC(=O)N(CCNC(=O)CCCCCN2C(=CC=C3CCCC(C=CC4=[N+](CCCCS(=O)(=O)[O-])c5ccc(S(=O)(=O)O)cc5C4(C)C)=C3Oc3ccc(S(=O)(=O)O)cc3)C(C)(C)c3cc(S(=O)(=O)O)ccc32)C1=O)C(N)=O)[C@@H](C)O)[C@@H](C)O (some centres unmarked) [HPD*-IRDye800] (H-HPDMFTRTHSHNGGGSC(X1)-NH2; N-terminus and C-terminus assumed)
fluorescence intensity / cell surface staining, siEpCAM versus siCL [1]: Decreased cell surface staining; also recorded: reduced intensity | binding to the surface of siCL (control) Hep3B cells ([1]; confocal microscopy, control siRNA Hep3B cells): strong binding | binding to the surface of Hep3B human HCC cells ([2]; confocal microscopy): bind intensely | Pearson's correlation coefficient, co-localization with anti-EpCAM-AF488 ([2]; merged image, Hep3B cells): 0.81 | half-life [3]: 2.6 h | staining of HCC tumor cell surface (but not normal mouse liver) [4]: strong staining; also recorded: Bright fluorescence | acute toxicity on histology (H&E) of vital organs [5]: No signs of acute toxicity | fold increase in mean fluorescence intensity, HCC versus normal human liver ([6]; HCC n=36, normal n=12): 2.6 fold | Pearson's correlation coefficient, co-localization with anti-EpCAM-AF488 ([6]; human HCC sections): 0.68 | AUC of ROC curve, HCC versus normal ([6]; human specimens ex vivo): 0.81 | sensitivity to distinguish HCC from normal (ROC) ([6]; human specimens ex vivo): 85% | specificity to distinguish HCC from normal (ROC) ([6]; human specimens ex vivo): 66% | mean fluorescence intensity, binding to HCC versus normal human liver ([6]; immunofluorescence): significantly greater | staining of the surface of human HCC cells ([6]; immunofluorescence, human specimens): Intense staining; also recorded: strong staining | Pearson's correlation coefficient, co-localization with anti-EpCAM-AF488 ([6]; normal human liver sections): 0.66 | tissue to tissue ratio [7]: 1.5 | tumor uptake / T/B ratio in whole-body images [8]: greater uptake | detection of / binding to HCC micrometastases in lung [9]: detected very small tumor volumes in the form of micrometastases; also recorded: strong binding | tissue to tissue ratio [10]: 1.5 | time to near complete clearance / signal back to baseline ([11]; Hep3B xenograft tumors, post-injection): ~ 48 hours | NIR fluorescence intensity of tumor versus PFH*-IRDye800 ([11]; […] post-injection, Hep3B xenograft): significantly greater | mean tumor intensity, fold greater than PFH*-IRDye800 ([11]; […] post-injection, tail vein, Hep3B xenograft): > 3.2 fold

CC1(C)C(/C=C/C=C/C=C/C=C2\N(CCCCS(=O)(=O)[O-])c3ccc4ccccc4c3C2(C)C)=[N+](CCCCS(=O)(=O)[O-])c2ccc3ccccc3c21.[Na+] [ICG, reference compound]
tumor uptake / T/B ratio in whole-body images [8]: non-specific uptake | time of peak uptake / peak T/B ratio post-injection ([11]; Hep3B xenograft tumors, imaged 0-48 hours): over 48 hours

HPDMFTRTHSHN [HPD*, Optimized EpCAM-specific peptide, unlabeled]
fluorescence intensity / cell surface staining, siEpCAM versus siCL [1]: significantly greater signal for siCL versus siEpCAM | mean fluorescence intensity from HPD*-IRDye800 with competition from unlabeled peptide [12]: Decreased intensity; also recorded: decreased significantly | tumor uptake / T/B ratio in whole-body images [8]: reduced values

PFHDMHSNHTRT [PFH*, Unlabeled scrambled peptide (control), reference compound]
fluorescence intensity / cell surface staining, siEpCAM versus siCL [1]: non-significant difference

B1: HPD*-IRDye800 (peptide)
peptide: HPDMFTRTHSHNGGGSC
modifications: also: IRDye800 attached via C-terminal GGGSC linker
notes: also called IRDye800-labeled HPD*; EpCAM-specific peptide conjugate
Kd [13]: 43 nM
